Experimental data as given in patent US11096952B2, “Chemicals and methods to prevent and treat TGF-beta mediated activation of fibroblasts to reduce and treat cancer and fibrosis” (Board of Supervisors of Louisiana State University and …, priority 2016, dated 2021).

Tests used:
[1] = tested on: TGF-β-induced CAF differentiation markers; experiment: Real-Time PCR of CAF markers in WPMY-1 fibroblasts; format: cell-based, human; conditions: WPMY-1, 120 nM digoxin, 24 h
Method: In order to determine if digoxin prevents CAF differentiation or simply TGF-β-induced fibronectin expression, the inventors performed quantitative reverse transcriptase-PCR (qPCR) to analyze other CAF markers, including α-SMA, collagen 1a1 (COL1A1), fibroblast activation protein (FAP), and tenascin C (TNC). RNA was extracted from cells treated with 120 nM digoxin±TGF-β for 24 hours. […] Additionally, the inventors observed that α-SMA mRNA expression was already high in WPMY-1 cells and not increased by addition of TGF-β, but was reduced in response to digoxin treatment.

[2] = tested on: TGF-β-induced fibronectin expression; experiment: Western blot of TGF-β-induced fibronectin expression in HPS-19 fibroblasts; format: cell-based, human; conditions: HPS-19, 5 ng/ml TGF-β, digoxin 30, 60, 120, 240 nM, 24 hours
Excerpt: (§1) Representative blots are shown with two exposures of fibronectin to account for strong signal intensity. n=3.

SMAD promoter activity = experiment: SMAD luciferase reporter in WPMY-1 cells; format: cell-based, human; conditions: WPMY-1, digoxin 60 or 120 nM, 5 ng/ml TGF-β, 24 hours
Method: (§2) A) WPMY-1 human fibroblast cells transfected with SMAD (left) or EGR1 (right) luciferase reporter were treated with or without 5 ng/ml TGF-β in the presence or absence of Digoxin (60 or 120 nM) for 24 hours. Relative luciferase activity is shown. *P<0.05, **P<0.01, ***P<0.001 are significant differences compared to values set to 1 (n=3, Values are ±SEM). B) J2 mouse fibroblast cells were treated with or without 5 ng/ml TGF-β in the presence or absence of increasing concentrations (30, 60, 120, or 240 nM) of digoxin for 24 hours. Representative blot is shown with two exposures of fibronectin to account for strong signal intensity (n=3).
(§3) Finally, J2 mouse fibroblast cells were treated with or without 5 ng/ml TGF-β in the presence or absence of increasing concentrations (30, 60, 120, or 240 nM) of digoxin for 24 hours.

[3] = tested on: activated fibroblast phenotype (fibronectin, YAP, TAZ, smooth muscle actin); experiment: Western blot of activated fibroblast markers (FN, YAP, TAZ, SMA) in MRC-5 lung fibroblasts induced by growth factors; format: cell-based, human
Method: FIG. 10C: MRC-5 lung fibroblast cells were serum-starved 24 hours then treated with 10 ng/mL TGF-β in serum-free media for 24 hours with or without verteporfin at the indicated concentration. FN: fibronectin, YAP: yes-activated protein, TAZ: transcriptional coactivator with PDZ-binding motif, and SMA(ACTA2): smooth muscle actin. Representative western blot is shown (n=3).
FIG. […] T.F.8: combination TGF, FGF, IL8. […] FN: fibronectin, YAP: yes-activated protein, TAZ: transcriptional coactivator with PDZ-binding motif, and SMA(ACTA2): smooth muscle actin. Representative western blot is shown (n=2).

[4] = tested on: TGF-β-induced fibronectin expression; experiment: Western blot of TGF-β-induced fibronectin expression in MRC-5 fibroblasts (5 ng/ml TGF-β); format: cell-based, human; conditions: MRC-5, 5 ng/ml TGF-β, digoxin 30, 60, 120, 240 nM, 24 hours
Excerpt: as §1

[5] = tested on: TGF-β-induced fibronectin expression; experiment: Western blot of TGF-β-induced fibronectin in J2 mouse fibroblast cells; format: cell-based; conditions: J2 (3T3-J2) mouse fibroblasts, digoxin 30-240 nM, 5 ng/ml TGF-β, 24 hours
Method: as §2, §3
The inventors used 3T3-J2 murine fibroblasts, which are highly resistant to cardiac glycosides compared to theft human counterpart.

[6] = tested on: activated fibroblast phenotype; conditions: MRC-5 pre-activated with 10 ng/mL TGF-β 24 hours, then 24 hours treatment
Method: (§4) FIGS. 13A-13C: MRC-5 lung fibroblast cells were serum-starved 24 hours then treated with or without 10 ng/mL TGF-β for 24 hours (T-24 hr). […] FN: fibronectin, YAP: yes-activated protein, TAZ: transcriptional coactivator with PDZ-binding motif, and SMA(ACTA2): smooth muscle actin. Representative western blot is shown (n=2). […] Cells were fixed in −20C methanol for 15 minutes and immunolabeled for fibronectin. Cellomics arrayscan imaging was performed and staining intensity was quantified and analyzed for fibronectin expression on a per cell basis.
(§5) Turning now to FIGS. 13A-13E, in a clinical setting, it would be advantageous for the efficacy of the therapeutics that the activated fibroblasts be reversed to a quiescent state upon treatment. […] To test the combinations, the inventors obtained quantitative analysis of fibronectin staining in fibroblasts upon treatment with TGF-β in the presence or absence of drug combinations.

[7] = tested on: TGF-β-induced fibronectin; conditions: MRC-5, 10 ng/mL TGF-β, 24 hours, low concentrations alone or in combination
Method: as §4, §5

**Q.** What does the source list for `C[C@H]1O[C@@H](O[C@H]2[C@@H](O)C[C@H](O[C@H]3[C@@H](O)C[C@H](O[C@H]4CC[C@@]5(C)[C@H](CC[C@@H]6[C@@H]5C[C@@H](O)[C@]5(C)[C@@H](C7=CC(=O)OC7)CC[C@]65O)C4)O[C@@H]3C)O[C@@H]2C)C[C@H](O)[C@@H]1O` [digoxin]?
**A.** TGF-β-induced expression of FN1, COL1A1, FAP, TNC mRNA ([1]; 5 ng/ml TGF-β): prevented TGF-β-induced expression of FN1, COL1A1, FAP, and TNC mRNA; α-SMA mRNA expression [1]: reduced; TGF-β-induced fibronectin expression (western blot) [2]: prevents TGF-β-induced fibronectin expression in a dose dependent manner; TGF-β-induced SMAD promoter (luciferase) activity (SMAD promoter activity): prevents the TGF-β induction of the SMAD signaling pathway; activated fibroblast phenotype induced by TGF-β and FGF (fibronectin, YAP, TAZ, smooth muscle actin) ([3]; MRC-5, 10 ng/mL TGF-β and 20 ng/ml FGF, 24 hours): able to prevent the activated fibroblast phenotype; activated fibroblast phenotype upon TGF-β and FGF, compared with nintedanib ([3]; MRC-5, 10 ng/mL TGF-β and 20 ng/ml FGF, 24 hours, nintedanib 200 nM): able to block the activated fibroblast phenotype better than nintedanib; fibroblast activation from a combination of growth factors (TGF, FGF, IL8) ([3]; MRC-5, 10 ng/mL TGF-β, 20 ng/mL FGF, 20 ng/mL IL-8, digoxin 250 nM, pyrvinium 500 nM vs pirfenidone 500 μm, nintedanib 250 nM): able to block fibroblast activation from a combination of growth factors better than pirfenidone or nintedanib; induction of fibronectin, YAP, TAZ, smooth muscle actin by TGF-β ([3]; MRC-5, 10 ng/mL TGF-β, serum-free, 24 hours, dose escalation): block the induction of activated fibroblasts; TGF-β-induced fibronectin expression (western blot) [4]: prevents TGF-β-induced fibronectin expression in a dose dependent manner; TGF-β-induced fibronectin expression in mouse fibroblasts [5]: did not have an effect on TGF-β-induced fibronectin expression; TGF-β-induced fibronectin expression in mouse fibroblasts ([5]; listed as Digoxin): did not prevent fibronectin induction even at high concentrations; reversal of activated fibroblast phenotype (fibronectin, TAZ, smooth muscle actin) [6]: revert fibroblasts to the quiescent state; fibronectin staining intensity per cell (Cellomics arrayscan) [7]: the levels of fibronectin are reduced
